Source: publication PMC2901914 (Neuron, 2010)

Target: T1, mouse I7 receptor (mI7) (Mus musculus, UniProt Q9QWU6)
T1 sequence (Q9QWU6 1-327): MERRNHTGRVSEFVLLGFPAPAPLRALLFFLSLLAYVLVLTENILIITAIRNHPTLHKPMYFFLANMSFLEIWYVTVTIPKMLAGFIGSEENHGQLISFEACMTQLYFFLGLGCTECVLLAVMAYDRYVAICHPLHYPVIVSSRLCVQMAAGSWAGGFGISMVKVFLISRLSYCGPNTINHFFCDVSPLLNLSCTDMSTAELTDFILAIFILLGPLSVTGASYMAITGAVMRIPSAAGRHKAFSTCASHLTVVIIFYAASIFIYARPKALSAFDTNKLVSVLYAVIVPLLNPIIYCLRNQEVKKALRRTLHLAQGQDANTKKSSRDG

EC50	Compound
~63.1 µM	CCCCCCCC=O [8al, octanal]
~6.3 µM	CCCCCCC=O [7al, heptanal]
